Paper PMC7316778 (Nature Communications, 2020)
“And” between values parts separate entries of the source, which are not always exact repeats. Identical values can stand only once. Like-named read-outs stand apart in the source and are kept apart here.

Assays:
Assay in all cases: SelectScreen kinase assay
EPHA6 = EPHA6 (Homo sapiens, UniProt Q9UF33)
Procedure: (§1) Selectivity profiling assays were performed by the Invitrogen SelectScreen™ Services. […] The concentration of ATP was selected to be equal to the KM, unless indicated otherwise.

EPHB4 = target: T1, EPHB4 (Homo sapiens, UniProt P54760); conditions: for Inhibition at 1 µM (%): EPHB4, ZLYTE, ATP Km app
T1 sequence (P54760 16-987): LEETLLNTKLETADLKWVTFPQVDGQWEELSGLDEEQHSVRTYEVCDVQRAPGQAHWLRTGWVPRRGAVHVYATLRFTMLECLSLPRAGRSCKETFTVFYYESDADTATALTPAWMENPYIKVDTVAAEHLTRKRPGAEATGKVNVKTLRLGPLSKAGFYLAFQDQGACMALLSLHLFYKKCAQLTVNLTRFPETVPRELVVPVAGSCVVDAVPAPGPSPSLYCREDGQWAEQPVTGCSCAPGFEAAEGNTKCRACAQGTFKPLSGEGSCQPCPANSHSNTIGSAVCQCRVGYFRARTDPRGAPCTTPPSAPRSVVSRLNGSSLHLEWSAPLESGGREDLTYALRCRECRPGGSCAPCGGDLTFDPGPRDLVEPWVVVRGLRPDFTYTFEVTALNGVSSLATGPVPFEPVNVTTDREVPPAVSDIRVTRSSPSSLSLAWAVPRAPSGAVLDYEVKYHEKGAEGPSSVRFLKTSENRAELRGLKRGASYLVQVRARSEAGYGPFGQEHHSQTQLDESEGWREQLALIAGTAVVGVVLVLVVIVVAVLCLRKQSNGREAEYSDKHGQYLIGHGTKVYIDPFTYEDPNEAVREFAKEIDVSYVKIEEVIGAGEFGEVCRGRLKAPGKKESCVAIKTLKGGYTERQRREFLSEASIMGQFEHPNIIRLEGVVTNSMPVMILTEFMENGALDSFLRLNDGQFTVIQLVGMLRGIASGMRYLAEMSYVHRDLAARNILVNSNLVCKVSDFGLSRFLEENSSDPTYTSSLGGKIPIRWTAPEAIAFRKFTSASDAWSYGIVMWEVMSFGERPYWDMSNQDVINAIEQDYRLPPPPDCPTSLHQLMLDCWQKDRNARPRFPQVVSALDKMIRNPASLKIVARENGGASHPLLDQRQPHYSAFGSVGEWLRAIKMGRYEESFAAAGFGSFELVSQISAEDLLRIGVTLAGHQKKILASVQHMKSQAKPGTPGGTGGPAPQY
Procedure: as §1

SRPK1 = SRPK1 (Homo sapiens, UniProt Q96SB4)
Procedure: as §1

CDC42 BPG (MRCKG) = CDC42 BPG (MRCKG) (Homo sapiens, UniProt Q6DT37)
Procedure: as §1

NUAK1 (ARK5) = target: T2, NUAK1 (ARK5) (Homo sapiens, UniProt O60285)
T2 sequence (O60285 1-661): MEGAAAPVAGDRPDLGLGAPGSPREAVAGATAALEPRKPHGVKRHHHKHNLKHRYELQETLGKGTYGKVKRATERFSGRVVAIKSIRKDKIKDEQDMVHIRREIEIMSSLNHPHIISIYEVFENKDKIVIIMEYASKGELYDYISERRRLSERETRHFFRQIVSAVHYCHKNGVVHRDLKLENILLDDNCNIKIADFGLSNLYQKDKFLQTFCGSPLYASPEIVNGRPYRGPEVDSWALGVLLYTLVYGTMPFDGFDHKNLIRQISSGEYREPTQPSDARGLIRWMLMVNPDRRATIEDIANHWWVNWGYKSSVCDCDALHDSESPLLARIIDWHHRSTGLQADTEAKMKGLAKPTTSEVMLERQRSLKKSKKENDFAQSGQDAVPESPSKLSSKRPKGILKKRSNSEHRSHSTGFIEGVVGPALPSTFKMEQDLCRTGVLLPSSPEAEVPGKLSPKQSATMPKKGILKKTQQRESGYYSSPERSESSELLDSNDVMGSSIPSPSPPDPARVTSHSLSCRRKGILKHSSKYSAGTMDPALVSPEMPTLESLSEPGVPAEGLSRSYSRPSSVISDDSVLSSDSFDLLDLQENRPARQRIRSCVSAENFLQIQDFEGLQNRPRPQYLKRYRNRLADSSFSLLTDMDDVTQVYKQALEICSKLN
Procedure: as §1

EEF2K = target: T3, EEF2K (Homo sapiens, UniProt O00418)
T3 sequence (O00418 1-725): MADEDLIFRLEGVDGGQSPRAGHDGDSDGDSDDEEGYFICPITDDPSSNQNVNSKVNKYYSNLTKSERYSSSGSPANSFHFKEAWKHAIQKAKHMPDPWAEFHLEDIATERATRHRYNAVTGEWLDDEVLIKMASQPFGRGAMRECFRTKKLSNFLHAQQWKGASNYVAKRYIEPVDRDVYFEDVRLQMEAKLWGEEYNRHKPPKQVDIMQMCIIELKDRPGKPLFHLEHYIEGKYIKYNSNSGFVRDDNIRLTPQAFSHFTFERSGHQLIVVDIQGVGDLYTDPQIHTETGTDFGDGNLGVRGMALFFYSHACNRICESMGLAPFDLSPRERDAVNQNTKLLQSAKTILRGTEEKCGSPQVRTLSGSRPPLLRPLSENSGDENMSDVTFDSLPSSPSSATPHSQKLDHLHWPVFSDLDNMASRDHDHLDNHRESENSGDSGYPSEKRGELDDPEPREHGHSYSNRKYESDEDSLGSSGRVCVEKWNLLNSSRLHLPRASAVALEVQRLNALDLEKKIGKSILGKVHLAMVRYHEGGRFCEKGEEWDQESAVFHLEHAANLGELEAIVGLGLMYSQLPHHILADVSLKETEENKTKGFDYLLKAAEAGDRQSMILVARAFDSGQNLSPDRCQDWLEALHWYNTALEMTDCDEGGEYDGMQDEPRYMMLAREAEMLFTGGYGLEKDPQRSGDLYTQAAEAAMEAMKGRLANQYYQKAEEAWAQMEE
Procedure: as §1

[1] = target: PIK3CA/PIK3R3 (p110 alpha/p55 gamma) (Homo sapiens, UniProt P42336); conditions: for Inhibition at 1 µM (%): PIK3CA/PIK3R3 (p110 alpha/p55 gamma), Adapta, ATP 10
Procedure: as §1

PIP5K1A = PIP5K1A (Homo sapiens, UniProt Q99755)
Procedure: as §1

[2] = 1 h, 1 μM WEL028, 1 h preincubation

Chain of SRPK1 (Q96SB4 whole entry): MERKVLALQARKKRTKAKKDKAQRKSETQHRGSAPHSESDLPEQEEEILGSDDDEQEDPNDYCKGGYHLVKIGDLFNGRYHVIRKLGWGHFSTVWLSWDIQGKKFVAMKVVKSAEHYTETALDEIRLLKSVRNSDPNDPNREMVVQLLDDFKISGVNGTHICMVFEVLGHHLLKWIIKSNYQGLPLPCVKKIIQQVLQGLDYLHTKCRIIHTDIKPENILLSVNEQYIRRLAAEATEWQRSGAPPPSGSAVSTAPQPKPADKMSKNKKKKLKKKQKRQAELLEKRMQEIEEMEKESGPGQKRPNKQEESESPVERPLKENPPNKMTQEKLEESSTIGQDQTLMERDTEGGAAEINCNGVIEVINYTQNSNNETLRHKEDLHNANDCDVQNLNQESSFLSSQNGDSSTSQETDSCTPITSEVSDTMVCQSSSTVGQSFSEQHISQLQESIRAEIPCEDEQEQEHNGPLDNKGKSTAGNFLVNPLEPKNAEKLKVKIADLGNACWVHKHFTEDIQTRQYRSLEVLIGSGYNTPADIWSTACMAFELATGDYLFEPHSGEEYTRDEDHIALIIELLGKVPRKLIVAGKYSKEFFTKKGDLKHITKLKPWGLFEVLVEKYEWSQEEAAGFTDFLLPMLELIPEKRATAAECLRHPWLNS
Chain of PIK3CA/PIK3R3 (p110 alpha/p55 gamma) (P42336 whole entry): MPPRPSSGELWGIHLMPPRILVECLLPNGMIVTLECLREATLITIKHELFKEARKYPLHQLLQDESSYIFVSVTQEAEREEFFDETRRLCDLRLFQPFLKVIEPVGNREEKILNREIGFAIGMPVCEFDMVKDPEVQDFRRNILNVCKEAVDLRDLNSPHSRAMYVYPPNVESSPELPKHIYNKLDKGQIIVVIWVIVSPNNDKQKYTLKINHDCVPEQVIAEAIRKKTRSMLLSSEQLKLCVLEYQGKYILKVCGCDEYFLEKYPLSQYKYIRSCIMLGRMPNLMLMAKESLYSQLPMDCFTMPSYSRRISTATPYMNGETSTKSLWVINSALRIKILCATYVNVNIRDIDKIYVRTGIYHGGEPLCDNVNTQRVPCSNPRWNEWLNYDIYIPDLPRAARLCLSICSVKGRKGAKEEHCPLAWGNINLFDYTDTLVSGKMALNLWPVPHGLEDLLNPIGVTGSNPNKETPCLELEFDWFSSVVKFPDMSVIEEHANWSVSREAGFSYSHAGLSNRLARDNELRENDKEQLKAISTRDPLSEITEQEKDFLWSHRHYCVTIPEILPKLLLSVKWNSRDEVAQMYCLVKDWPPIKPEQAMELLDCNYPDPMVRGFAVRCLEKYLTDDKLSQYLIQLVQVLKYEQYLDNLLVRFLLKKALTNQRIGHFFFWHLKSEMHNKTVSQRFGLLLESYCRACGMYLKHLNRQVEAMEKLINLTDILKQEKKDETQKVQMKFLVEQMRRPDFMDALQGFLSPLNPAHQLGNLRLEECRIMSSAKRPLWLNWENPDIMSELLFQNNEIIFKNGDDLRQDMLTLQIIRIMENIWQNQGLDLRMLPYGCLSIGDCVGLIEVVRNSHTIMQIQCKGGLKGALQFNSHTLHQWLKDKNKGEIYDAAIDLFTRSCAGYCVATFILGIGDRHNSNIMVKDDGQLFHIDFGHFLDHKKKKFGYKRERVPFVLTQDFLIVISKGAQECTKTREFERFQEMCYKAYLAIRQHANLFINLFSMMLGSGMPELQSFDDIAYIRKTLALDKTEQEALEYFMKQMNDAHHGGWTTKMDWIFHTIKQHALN
Chain of PIP5K1A (Q99755 whole entry): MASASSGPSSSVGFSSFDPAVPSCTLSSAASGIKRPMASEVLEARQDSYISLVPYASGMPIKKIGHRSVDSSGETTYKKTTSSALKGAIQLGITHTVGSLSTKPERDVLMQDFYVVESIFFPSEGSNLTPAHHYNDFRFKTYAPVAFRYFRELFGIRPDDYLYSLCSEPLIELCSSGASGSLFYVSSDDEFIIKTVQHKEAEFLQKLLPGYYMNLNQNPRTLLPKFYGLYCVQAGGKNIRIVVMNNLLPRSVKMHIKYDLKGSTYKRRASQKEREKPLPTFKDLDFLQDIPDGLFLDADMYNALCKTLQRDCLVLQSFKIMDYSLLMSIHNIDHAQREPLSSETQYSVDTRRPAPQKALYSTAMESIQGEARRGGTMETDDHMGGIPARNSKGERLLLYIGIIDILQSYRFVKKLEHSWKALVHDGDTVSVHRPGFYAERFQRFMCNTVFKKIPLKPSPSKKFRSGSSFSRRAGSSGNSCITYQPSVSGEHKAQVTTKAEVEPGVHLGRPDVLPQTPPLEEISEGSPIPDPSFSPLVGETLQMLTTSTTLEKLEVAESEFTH
Chain of CDC42 BPG (MRCKG) (Q6DT37 whole entry): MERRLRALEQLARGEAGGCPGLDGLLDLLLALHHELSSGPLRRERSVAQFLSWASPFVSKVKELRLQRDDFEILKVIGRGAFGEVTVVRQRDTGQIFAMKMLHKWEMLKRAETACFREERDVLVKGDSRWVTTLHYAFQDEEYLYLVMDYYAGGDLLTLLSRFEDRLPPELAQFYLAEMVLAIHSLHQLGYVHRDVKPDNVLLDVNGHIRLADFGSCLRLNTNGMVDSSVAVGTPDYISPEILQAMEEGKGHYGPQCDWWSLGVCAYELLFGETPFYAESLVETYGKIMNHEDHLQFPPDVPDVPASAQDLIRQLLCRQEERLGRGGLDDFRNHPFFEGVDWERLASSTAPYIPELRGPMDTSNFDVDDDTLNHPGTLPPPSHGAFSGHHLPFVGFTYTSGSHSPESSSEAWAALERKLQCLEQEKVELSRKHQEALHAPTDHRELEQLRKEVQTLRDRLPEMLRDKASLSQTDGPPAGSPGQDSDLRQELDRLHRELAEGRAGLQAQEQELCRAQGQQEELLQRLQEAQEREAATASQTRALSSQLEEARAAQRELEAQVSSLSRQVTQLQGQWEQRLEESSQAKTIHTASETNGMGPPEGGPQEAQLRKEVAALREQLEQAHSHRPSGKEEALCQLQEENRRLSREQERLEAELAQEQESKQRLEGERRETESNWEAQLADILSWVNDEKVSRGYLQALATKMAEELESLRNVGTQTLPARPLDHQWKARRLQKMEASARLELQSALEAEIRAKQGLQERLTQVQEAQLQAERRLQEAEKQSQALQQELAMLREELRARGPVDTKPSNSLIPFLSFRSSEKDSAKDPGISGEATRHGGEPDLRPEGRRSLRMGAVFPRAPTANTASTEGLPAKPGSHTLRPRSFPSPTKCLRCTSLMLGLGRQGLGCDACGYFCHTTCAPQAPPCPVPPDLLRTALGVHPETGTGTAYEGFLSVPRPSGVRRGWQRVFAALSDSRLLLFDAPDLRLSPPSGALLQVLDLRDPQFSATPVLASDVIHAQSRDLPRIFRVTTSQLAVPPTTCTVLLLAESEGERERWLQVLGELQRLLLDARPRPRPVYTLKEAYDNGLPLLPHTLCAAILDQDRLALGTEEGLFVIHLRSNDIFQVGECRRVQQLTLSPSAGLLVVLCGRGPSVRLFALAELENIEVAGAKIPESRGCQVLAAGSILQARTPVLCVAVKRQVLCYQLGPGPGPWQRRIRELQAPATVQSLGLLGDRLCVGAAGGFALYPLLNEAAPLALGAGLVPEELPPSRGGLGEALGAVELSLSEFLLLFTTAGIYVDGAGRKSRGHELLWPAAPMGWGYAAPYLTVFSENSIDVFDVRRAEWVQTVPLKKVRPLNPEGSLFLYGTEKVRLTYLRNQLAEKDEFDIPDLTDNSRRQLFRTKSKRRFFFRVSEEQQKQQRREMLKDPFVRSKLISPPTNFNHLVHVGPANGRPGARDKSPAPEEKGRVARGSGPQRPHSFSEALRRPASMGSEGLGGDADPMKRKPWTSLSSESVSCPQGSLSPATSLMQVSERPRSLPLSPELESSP

SMILES: C#CCOc1ccc(Nc2ncc(Cl)c(Nc3ccccc3NC(=O)C=C)n2)c(OC)c1 [Compound 6]
- inhibition at 1 µM (EPHA6; [2]): 6%
- inhibition at 1 µM (EPHA6; read-out: Inhibition at 1 µM (%), EPHA6, 1 µM, LanthaScreen Binding): 5%
- inhibition at 1 µM (EPHB4; [2]): 1%
- Inhibition at 1 µM (%) (EPHB4): 3%
- Inhibition at 1 µM (%) (EPHB4; listed as WEL028, 1 µM): -1%
- Inhibition at 1 µM (%) (SRPK1; 1 µM, ZLYTE, ATP Km app, listed as WEL028, 1 µM): 2% and 11%
- inhibition at 1 µM (SRPK1; [2]): 7%
- inhibition at 1 µM (CDC42 BPG (MRCKG); 1 h): -1%
- inhibition at 1 µM (CDC42 BPG (MRCKG); read-out: Inhibition at 1 µM (%)): -1%
- Inhibition (%) (NUAK1 (ARK5); 1 μM WEL028, 1 h preincubation): 35%
- Inhibition at 1 µM (%) (NUAK1 (ARK5); NUAK1 (ARK5), 1 µM, Adapta, ATP Km app, listed as WEL028, 1 µM): 41%
- inhibition at 1 µM (NUAK1 (ARK5); read-out: Inhibition at 1 µM (%), NUAK1 (ARK5), 1 µM, Adapta, ATP Km app): 30%
- inhibition at 1 µM (EEF2K; [2]): 9%
- Inhibition at 1 µM (%) (EEF2K; EEF2K, 1 µM, ZLYTE, ATP Km app, listed as WEL028, 1 µM): 7%
- inhibition at 1 µM (EEF2K; read-out: Inhibition at 1 µM (%), EEF2K, 1 µM, ZLYTE, ATP Km app): 12%
- inhibition at 1 µM [1, 2]: 1%
- Inhibition at 1 µM (%) [1]: 2%
- Inhibition at 1 µM (%) ([1]; listed as WEL028, 1 µM): -1%
- inhibition at 1 µM (PIP5K1A; [2]): -3%
- Inhibition at 1 µM (%) (PIP5K1A; PIP5K1A, 1 µM, Adapta, ATP 10, listed as WEL028, 1 µM): 1% and -7%
